From ChEMBL document CHEMBL3593220, “Antimitotic and antivascular activity of heteroaroyl-2-hydroxy-3,4,5-trimethoxybenzenes” (Bioorg Med Chem, 2015)
Activity calls are given as the source filed them. The rule behind the calls is not given here.

How the values were obtained:
HT-29 = assay: Antiproliferative activity against human HT-29 cells after 72 hrs by methylene blue assay; type: functional, cell-based
[1] = Antiproliferative activity against human KB-VIN10 cells expressing P-gp170/MDR after 72 hrs by methylene blue assay; type: functional, cell-based; details: KB-VIN10, 72 h
KB = assay: Antiproliferative activity against human KB cells after 72 hrs by methylene blue assay; type: functional, cell-based
[2] = Antiproliferative activity against human MKN45 cells after 72 hrs by methylene blue assay; type: functional, cell-based; details: MKN-45, 72 h
[3] = Antiproliferative activity against human KB-S15 cells expressing P-gp170/MDR after 72 hrs by methylene blue assay; type: functional, cell-based; details: KB-S15, 72 h
[4] = Antiproliferative activity against human KB-7d cells expressing MRP after 72 hrs by methylene blue assay; type: functional, cell-based; details: KB7D
Tubulin = Tubulin (Bos taurus, UniProt Q6B856+Q862F3); assay: Inhibition of bovine brain tubulin polymerization after 30 mins
Tubulin, sequence (Q6B856 whole entry): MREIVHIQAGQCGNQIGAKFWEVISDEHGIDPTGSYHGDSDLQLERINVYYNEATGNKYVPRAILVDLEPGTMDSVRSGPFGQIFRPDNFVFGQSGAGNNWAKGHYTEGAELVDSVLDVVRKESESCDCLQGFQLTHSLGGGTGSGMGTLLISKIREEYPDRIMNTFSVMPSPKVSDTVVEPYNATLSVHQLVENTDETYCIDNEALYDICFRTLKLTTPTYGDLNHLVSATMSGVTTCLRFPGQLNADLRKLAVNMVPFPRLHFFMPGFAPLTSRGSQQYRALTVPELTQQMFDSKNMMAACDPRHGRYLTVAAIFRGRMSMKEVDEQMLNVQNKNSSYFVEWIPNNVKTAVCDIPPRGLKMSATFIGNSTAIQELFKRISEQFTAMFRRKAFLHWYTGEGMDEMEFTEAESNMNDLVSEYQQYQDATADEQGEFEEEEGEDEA
Tubulin, sequence (Q862F3 whole entry): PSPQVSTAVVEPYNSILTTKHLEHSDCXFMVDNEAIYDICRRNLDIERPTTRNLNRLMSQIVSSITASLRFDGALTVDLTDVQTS

Tubulin (Homo sapiens) = Tubulin (Homo sapiens) (UniProt P68371+Q9H4B7+P0DPH7+P68366+Q13509+Q71U36+P04350+Q3ZCM7+P07437+P68363+Q9BQE3+Q6PEY2+Q13885+Q9BVA1+Q9BUF5); assay: Displacement of 1 uM of [3H]colchicine from biotin-labeled tubulin (unknown origin) after 2 hrs by scintillation proximity assay; type: protein-complex assay
HUVEC [5] = assay: Antivascular activity in HUVEC assessed as inhibition of VEGF-induced capillary tube formation at 50 nM after 4 hrs by microscopic analysis relative to control; type: functional, Homo sapiens; set-up: scale not given: the % may be the effect or the level left
HUVEC [6] = assay: Antivascular activity in HUVEC assessed as inhibition of VEGF-induced capillary tube formation at 100 nM after 4 hrs by microscopic analysis relative to control; type: functional, Homo sapiens; set-up: scale not given: the % may be the effect or the level left
HUVEC [7] = assay: Antivascular activity in HUVEC assessed as inhibition of VEGF-induced capillary tube formation at 500 nM after 4 hrs by microscopic analysis relative to control; type: functional, Homo sapiens; set-up: scale not given: the % may be the effect or the level left
HUVEC [8] = assay: Antivascular activity in HUVEC assessed as inhibition of VEGF-induced capillary tube formation at 2500 nM after 4 hrs by microscopic analysis relative to control; type: functional, Homo sapiens; set-up: scale not given: the % may be the effect or the level left
[9] = Toxicity in HUVEC assessed as cell viability at 50 nM after 4 hrs relative to control; type: cell-based; details: human, HUVEC cells; read-out: Activity
[10] = Toxicity in HUVEC assessed as cell viability at 100 nM after 4 hrs relative to control; type: cell-based; details: human, HUVEC cells; read-out: Activity
[11] = Toxicity in HUVEC assessed as cell viability at 500 nM after 4 hrs relative to control; type: cell-based; details: human, HUVEC cells; read-out: Activity
[12] = Toxicity in HUVEC assessed as cell viability at 2500 nM after 4 hrs relative to control; type: cell-based; details: human, HUVEC cells; read-out: Activity
HUVEC [13] = assay: Antivascular activity in HUVEC assessed as inhibition of VEGF-induced capillary tube formation at 20 nM after 4 hrs by microscopic analysis relative to control; type: functional, Homo sapiens; set-up: scale not given: the % may be the effect or the level left
[14] = Toxicity in HUVEC assessed as cell viability at 20 nM after 4 hrs relative to control; type: cell-based; details: human, HUVEC cells; read-out: Activity

Structure (SMILES) | IC50 (KB) [nM] | IC50 (Tubulin) [nM] | inhibition (Tubulin (Homo sapiens)) [%] | Activity (HT-29) | IC50 [1] [nM] | IC50 [2] [nM] | IC50 [3] [nM] | IC50 [4] [nM] | also measured
COc1ccc(/C=C\c2cc(OC)c(OC)c(OC)c2)cc1O [COMBRETASTATIN A4] |  |  |  |  |  | 3.2 |  |  | Activity (HUVEC [13]): 0%; viability at 4 h, 0.02 µM [14]: 94%
COc1cc([C@@H]2c3cc4c(cc3[C@@H](O[C@@H]3O[C@@H]5CO[C@@H](C)O[C@H]5[C@H](O)[C@H]3O)[C@H]3COC(=O)[C@H]23)OCO4)cc(OC)c1O [ETOPOSIDE] |  |  |  |  |  |  | 3500 |  | 
CC(=O)O[C@H]1C(=O)[C@@]2(C)[C@H]([C@H](OC(=O)c3ccccc3)[C@]3(O)C[C@H](OC(=O)[C@H](O)[C@@H](NC(=O)c4ccccc4)c4ccccc4)C(C)=C1C3(C)C)[C@]1(OC(C)=O)CO[C@@H]1C[C@@H]2O [PACLITAXEL] |  |  |  |  |  |  |  | 8.4 | 
COc1cc(C(=O)c2cccc3c2ccn3C)c(O)c(OC)c1OC | 57.3 | 8200 | 66.3 | Active | 42.8 | 55.4 | 32.6 | 40 | 
CC[C@]1(O)C[C@H]2CN(CCc3c([nH]c4ccccc34)[C@@](C(=O)OC)(c3cc4c(cc3OC)N(C=O)[C@H]3[C@@](O)(C(=O)OC)[C@H](OC(C)=O)[C@]5(CC)C=CCN6CC[C@]43[C@@H]65)C2)C1 [VINCRISTINE] |  |  |  |  |  |  | 2.1 | 1.5 | 

Continued, in another order:

IC50 (KB) [nM] | IC50 (Tubulin) [nM] | inhibition (Tubulin (Homo sapiens)) [%] | Structure (SMILES) | Activity (HT-29) | IC50 [1] [nM] | IC50 [2] [nM] | IC50 [3] [nM] | IC50 [4] [nM] | also measured
33 | 4900 | 84.4 | COc1cc(C(=O)c2ccc3c(ccn3C)c2)c(O)c(OC)c1OC | Active | 20.8 | 93.7 | 16.2 | 18.2 | Activity (HUVEC [5]): 72%; Activity (HUVEC [6]): 53%; Activity (HUVEC [7]): 41%; Activity (HUVEC [8]): 0%; viability at 4 h, 0.05 µM [9]: 95%; viability at 4 h, 0.1 µM [10]: 94%; viability at 4 h, 0.5 µM [11]: 97%; viability at 4 h, 2.5 µM [12]: 95%
22.9 |  |  | COc1cc(C(=O)c2ccc3ncccc3c2)c(O)c(OC)c1OC | Active |  | 116 |  |  | 
8.8 | 4200 | 87.2 | COc1ccc2c(C(=O)c3cc(OC)c(OC)c(OC)c3O)c[nH]c2c1 | Active | 9.5 | 10.5 | 5.8 | 8.5 | Activity (HUVEC [5]): 72%; Activity (HUVEC [6]): 49%; Activity (HUVEC [7]): 0%; Activity (HUVEC [8]): 0%; viability at 4 h, 0.05 µM [9]: 100%; viability at 4 h, 0.1 µM [10]: 96%; viability at 4 h, 0.5 µM [11]: 93%; viability at 4 h, 2.5 µM [12]: 99%
230 |  |  | COc1ccc2nc(C(=O)c3cc(OC)c(OC)c(OC)c3O)ccc2c1 | Active |  | 1160 |  |  | 
7700 |  |  | COc1cc(C(=O)c2ccnc3ccccc23)c(O)c(OC)c1OC | Active |  | 5960 |  |  | 
